Inconclusive results are not listed.
Biological target: Heat shock protein HSP 90-alpha (Homo sapiens) (UniProt P07900)
Assay: HsHsp90-dependent glucocorticoid receptor activity inhibition – S. cerevisiae, beta-galactosidase luminescence, dry powder, selectivity assay for Plasmodium Hsp90 inhibitor project, dose response (AID 602161)
Details: S. cerevisiae HsHsp90 GR reporter, beta-gal luminescence

O=S(=O)(NC1CCCCCC1)c1ccc(Br)s1
AC50: 2.6 µM

O=C(CSCC(=O)N1CCCCC1)Nc1nc(-c2ccc(Cl)s2)cs1
AC50: 9.72 µM

COc1ccc2c(c1)C=C(C(=O)NCc1ccc(Cl)cc1)CO2
AC50: 9.79 µM

O=S(=O)(/C=C/c1ccccc1)NC1CCCCCCC1
AC50: 9.6 µM

Cc1ccc(OCc2n[nH]c(=S)n2C2CCCCC2)cc1
AC50: 12.6 µM

CCOc1cc(S(=O)(=O)NC2CCCCCC2)ccc1F
AC50: 22.2 µM

Source: PubChem BioAssay AID602161 (Broad Institute, 2011)
